Several values for one entry are separate records, joined by “and”; a condition that tells them apart may be missing. Identical values can stand only once.
Tests used:
[1] = system: irritation-induced reduction in bladder capacity; assay: Dilute Acetic Acid Model-Rats (filling cystometry); assay type: in vivo, rat; details: intraduodenal
Excerpt: The abdominal cavity was moistened with saline and closed by covering with a thin plastic sheet in order to maintain access to the bladder for emptying purposes. Fine silver or stainless steel wire electrodes were inserted into the external urethral sphincter (EUS) percutaneously for electromyography (EMG).
P<0.050 was considered significant.

[2] = system: reduction in bladder capacity seen following continuous infusion of dilute acetic acid; assay: Dilute Acetic Acid Model-Cats; assay type: in vivo, cat; details: 3 point dose response, 3.0, 10.0 or 30 mg/ml dosed by body weight; P<0.0103; individual significance at 30 mg/kg
Protocol: Six alpha-chloralose anesthetized (50-100 mg/kg) normal female cats (2,5-3.5 kg; Harlan) were utilized in this study.
Female cats (2.5-3.5 kg; Harlan) had their food removed the night before the study. The following morning, the cats were anesthetized with isoflurane and prepped for surgery using aseptic technique. Polyethylene catheters were surgically placed to permit the measurement of bladder pressure, urethral pressure, arterial pressure, respiratory rate as well as for the delivery of drugs. Fine wire electrodes were implanted alongside the external urethral anal sphincter. […] During control cystometry, saline was slowly infused into the bladder (0.5-1.0 ml/min) for 1 hour. The control cystometry was followed by 0.5% acetic acid in saline for the duration of the experiment.
Data was analyzed using a non-parametric One-Way ANOVA (Friedman Test) with the post-hoc Dunn's multiple comparison t test. P<0.05 was considered significant.

[3] = system: acetic acid-induced colonic hypersensitivity; assay: Visceromotor response to colorectal distension in acetic acid-sensitized rats
Protocol: The visceromotor behavioral response to colorectal distension was measured by counting the number of abdominal contractions recorded by a strain gauge sutured onto the abdominal musculature as described in Gunter et al., Physiol. […] A 5 cm latex balloon catheter inserted via the anal canal into the colon was used for colorectal distensions. Constant pressure tonic distensions were performed in a graded manner (15, 30 or 60 mmHg) and were maintained for a period of 10 min and the numbers of abdominal muscle contractions were recorded to measure the level of colonic sensation. A 10 min recovery was allowed between distensions.
J. Physiol. […] In the present study, a low concentration of acetic acid (1.5 ml, 0.6%) was administered intracolonically to sensitize the colon without causing histological damage to the colonic mucosa as described in previous studies (Gunter et al., supra).
Injection volume was 0.2 mL using 100% propylene glycol as the vehicle. Three consecutive colorectal distensions at 15, 30 or 60 mmHg applied at 10-min intervals were recorded. Visceromotor responses were evaluated as the number of abdominal muscle contractions recorded during the 10-min periods of colorectal distension.
Adult male rats were used in the study. […] Specifically, rats were anesthetized with Isoflurane (2%) and were instrumented with a strain gauge force transducer for recording of abdominal muscle contractions. A latex balloon and catheter were inserted 11 cm into the colon. The animals were allowed a 30-min period to completely recover from the anesthesia and were then subjected to intracolonic infusion of acetic acid (1.5 mL, 0.6%). An additional 30-min period was allowed for sensitization of the colon. […] The protocol for colorectal distension was initiated 30-min post drug administration. After a basal reading of the number of abdominal contractions with the balloon inserted but not distended, three consecutive 10-min lasting colorectal distensions at 15, 30, and 60 mmHg were applied at 10-min intervals. Colorectal sensitivity was evaluated by counting the number of reflex abdominal contractions (i.e. the visceromotor response) observed within each distension period.
The visceromotor behavioral response to colorectal distension was measured by counting the number of abdominal contractions recorded by a strain gauge sutured onto the abdominal musculature as previously described Gunter et al., referenced above. Colorectal distensions were carried out utilizing a 5 cm latex balloon catheter inserted into the colon via the anal canal. Constant pressure tonic distensions were performed in a graded manner, i.e., the pressure was increased to the desired level of 15, 30, or 60 mmHg and then maintained for a period of 10 minutes during which the number of abdominal contractions were recorded to measure the level of colonic sensation. Ten minute recovery periods were allowed following each distension.

[4] = system: stress-induced accelerated colonic transit; assay: Water avoidance stress (WAS) model of increased colonic transit, fecal pellet output; assay type: in vivo, rat; details: 3, 10 or 30 mg/kg i.p.
Excerpt: At the end of the 1-hour stress period, the fecal pellets were counted and recorded. WAS causes an acceleration of colonic transit, which can be quantified by counting the number of fecal pellets, produced during the stress procedure. Rats were placed for 1-hour into a stress chamber onto a raised platform 7.5 cm×7.5 cm×9 cm (L×W×H) in the center of a stress chamber filled with room temperature water 8 cm in depth. The stress chamber was constructed from a rectangular plastic tub (40.2×60.2×31.2 cm). […] Ondansetron was supplied from APIN Chemicals LTD. […] MCI-225 was provided by Mitsubishi Pharma Corp. All drugs were dissolved in a vehicle of 100% propylene glycol (1,2-propanediol) by sonicating for a period of 10 minutes. Propylene glycol was obtained from Sigma Chemical Co. […] All drugs and the vehicle were administered as an i.p. injection in a volume of 0.2 mL.

[5] = system: small intestinal transit; assay: Small Intestinal Transit Rodent Model (charcoal meal); assay type: in vivo, rat; details: for Small intestinal transit, Mean (% of total length): 15 min test period
Protocol: Following an overnight fast, rats were brought to the laboratory in their home cages and received an i.p. injection of one of the following: […] Control rats received no treatment. The treated rats were placed back in the home cages and after 30 min, were fed a 2 mL charcoal meal via an oral gavage. Small intestinal transit was measured following 15 min test-period. Each rat was placed briefly in a glass chamber with IsoFlo for anesthesia and sacrificed. The stomach and the small intestine were removed and the total length of the small intestine was measured. Transit was then measured as the distance that the charcoal meal had traveled along the small intestine and expressed as % of the total length. Animals were randomly assigned to experimental groups and experiments were performed as illustrated in Table 11. Small intestinal transit in rats was investigated by the passage of a charcoal meal along the small intestine during a defined time period (15-min). The animals were deprived of food for 12-16 hrs prior to the experiments. Rats were given a charcoal meal (a mixture of charcoal, gum arabic, and distilled water) as a 2 mL oral gavage and were sacrificed after a 15-min test period. The distance traveled by the charcoal meal was quantified as a percent of the small intestinal length, using the following equation: Transit (%)=cm traveled by meal/cm total small intestinal length×100 […]

[6] = system: retching and vomiting induced by cisplatin; assay: Cisplatin-induced emesis in the ferret; assay type: in vivo, ferret (Mustela putorius furo)
Protocol: Following administration of the cisplatin and either MCI-225, ondansetron or vehicle alone, the occurrence of retching and vomiting was monitored for a period of 6 hours. […] Vomiting was defined as the forceful oral expulsion of upper gastrointestinal contents. The latency of the retching or vomiting response and the number of episodes were recorded for each animal and summarized for each experimental group (Wright et al., Infect. […] Following one hour of acclimation to the observation cage, ferrets received an intraperitoneal (i.p.) injection of cisplatin (5 mg/kg in 5 mL) followed in about 2 minutes by i.p. injection of a single dose of MCI-225 or ondansetron (Rudd and Naylor, Eur. J. Pharmacol., 322: 79-82 (1997)). […] Each animal received a single-dose drug treatment. In addition, three animals received an initial dose (30 mg/kg i.p.) and a second MCI-225 injection (30 mg/kg i.p.) 180 minutes following the initial dose. […] All groups were randomized.

[7] = 30 mg/kg b.i.d, second dose 180 minutes after the first

4-(2-fluorophenyl)-6-methyl-2-(piperazin-1-yl)thieno[2,3-d]pyrimidine hydrochloride [MCI-225]
Bladder capacity versus AA/Veh 3 ([1]; 10 mg/kg, p<0.05 Dunn's test): significantly higher than AA/Veh 3 | Bladder capacity versus AA/Veh 3 ([1]; 30 mg/kg, p<0.001 Dunn's test): significantly higher than AA/Veh 3 | Bladder capacity ([1]; 3-30 mg/kg, n=8, p=0.0005 by Friedman test): dose-dependent increase | Bladder capacity following acetic acid irritation [2]: significant dose-dependent increase | Number of abdominal contractions in response to colorectal distension, compared to the vehicle ([3]; 10 mg/kg i.p., 15, 30 and 60 mmHg): significant decrease | Effect on visceromotor response relative to lower dose ([3]; 30 mg/kg i.p.): less effective | Animals in which the visceromotor response to CRD was eliminated ([3]; 30 mg/kg i.p., n=6): 50 % of the animals | WAS-induced fecal pellet output during 1 hour [4]: significant dose-dependent inhibition | Small intestinal transit, Mean (% of total length) ([5]; 3 mg/kg i.p.): 30.1% | Small intestinal transit, Mean (% of total length) ([5]; 10 mg/kg i.p., hydrochloride): 4.2±2.6% and 4.2% | Small intestinal transit, Mean (% of total length) ([5]; 30 mg/kg i.p.): 8.8% | Effect on small intestinal transit compared to the vehicle ([5]; 3, 10 or 30 mg/kg i.p.): dose-dependent inhibition | Latency ([6]; 1 mg/kg i.p.): 186 ± 35 min | Retches (360 min) ([6]; 1 mg/kg i.p.): 30.4 ± 9.1 | Total Events ([6]; 1 mg/kg i.p.): 32.9 ± 9.8 | Vomits (360 min) ([6]; 1 mg/kg i.p.): 2.5 ± 0.7 | Latency ([6]; 10 mg/kg i.p.): 192 ± 57 min | Retches (360 min) ([6]; 10 mg/kg i.p.): 22.9 ± 10.3 | Total Events ([6]; 10 mg/kg i.p.): 25.5 ± 11.1 | Vomits (360 min) ([6]; 10 mg/kg i.p.): 2.6 ± 1.0 | Latency [6, 7]: 360 ± 0 min | Retches (360 min) [6, 7]: 0.0 ± 0.0 | Total Events [6, 7]: 0.0 ± 0.0 | Vomits (360 min) [6, 7]: 0.0 ± 0.0 | Latency ([6]; 30 mg/kg i.p.): 287 ± 38 min | Retches (360 min) ([6]; 30 mg/kg i.p.): 3.3 ± 2.2 | Total Events ([6]; 30 mg/kg i.p.): 4.0 ± 2.6 | Vomits (360 min) ([6]; 30 mg/kg i.p.): 0.7 ± 0.5 | Retches and vomits induced by cisplatin ([6]; 1, 10 or 30 mg/kg i.p.): dose-dependent reduction | Emetic response ([6]; two doses of 30 mg/kg, b.i.d at a 180-min interval): eliminated

Reference: patent US20070254891A1, “Crystalline forms of 4-(2-fluorophenyl)-6-methyl-2-(piperazin-1-yl)thieno[2,3-d]pyrimidine” (Dynogen Pharmaceuticals, Inc., priority 2006, published 2007)
